Key:
[1] = test system: LINE-1 DNA methylation in HepG2 cells (carboxylesterase dependence); assay: Inhibition of carboxylesterase by NDGA: LINE-1 methylation in HepG2 cells; format: cell-based
Source text: (§1) Bisulfite-converted DNA was used for pyrosequencing analysis as previously described (29). In brief, PCR product of each gene was used for individual sequencing reaction. Streptavidin-Sepharose beads (Amersham Biosciences, Uppsala, Sweden) and Vacuum Prep Tool (Biotage AB, Uppsala, Sweden) was used to purify the single-stranded biotinylated PCR product per the manufacturer's recommendation. The appropriate sequencing primer was annealed to the purified PCR product and used for a pyrosequencing reaction using the PSQ 96HS system (Biotage AB, Uppsala, Sweden). Raw data were analyzed with the allele quantification algorithm using the provided software. Pyrosequencing was done for LINE-1 elements and ID4 tumor suppressor gene.
For dose effects of nordihydroguaiaretic acid (NDGA) on CES inhibition, HepG2 cells were grown in 6-well plates. […] Cells were harvested on day 4 by Tripsin-EDTA.

[2] = test system: ID4 DNA methylation in MCF7 cells; assay: ID4 gene methylation, bisulfite-PCR pyrosequencing, MCF7 cells; format: cell-based; conditions: MCF; 10 μM; 3 days; baseline 39.0%
Procedure: (§2) T24 cells (urinary bladder transitional cell carcinoma), MCF7 (breast adenocarcinoma), HepG2 cells (hepatocellular carcinoma), Hep3B (hepatocellular carcinoma), were obtained from American Type Culture Collection (Manassas, Va.). T24 were cultured in McCoy's 5A medium supplemented with 10% fetal bovine serum. Other cells were cultured in DMEM medium plus 10% fetal bovine serum. All cells were grown in a humidified 37° C. incubator containing 5% CO2.
(§3) Cells were seeded at 2×10^4 cells per well in a 12-well dish 24 hours prior to treatments. Cells were treated with 5-Aza-CdR (Sigma-Aldrich Chemical Company, St. Louis, Mo.), NPEOC-DAC at the indicated concentrations. 5-aza-2′-deoxyazacytidine was dissolved in distilled water and NPEOC-DAC was dissolved in dimethyl sulfoxide (DMSO). Untreated controls of the DMSO solvent alone were also included. Cells were treated at the concentrations indicated for each experiment. Cells were collected after the number of days indicated in individual experiments. […]
(§4) Bisulfite modification of genomic DNA has been described previously (28). […] Bisulfite treated DNA was stored at −20° C. until ready for use.
(§5) Bisulfite-converted DNA was used for pyrosequencing analysis as previously described (29). […] Raw data were analyzed with the allele quantification algorithm using the provided software. […]

[3] = test system: LINE-1 DNA methylation in MCF7 cells (breast); assay: Global DNA methylation, bisulfite-PCR pyrosequencing of LINE-1, MCF7 cells; format: cell-based; conditions: MCF; 10 μM; three days
Procedure: as §2, §3, §4, §5

[4] = test system: ID4 DNA methylation in T24 cells; assay: ID4 gene methylation, bisulfite-PCR pyrosequencing, T24 cells; format: cell-based; conditions: 10 μM, 3 days, baseline 40.2%
Procedure: as §2, §3, §4, §5

[5] = test system: LINE-1 DNA methylation in Hep3B cells (liver); assay: Global DNA methylation, bisulfite-PCR pyrosequencing of LINE-1, Hep3B cells; format: cell-based; conditions: 10 μM, three days
Procedure: as §2, §3, §4, §5

[6] = test system: ID4 DNA methylation in HepG2 cells; assay: ID4 gene methylation, bisulfite-PCR pyrosequencing, HepG2 cells; format: cell-based; conditions: 10 μM, 3 days, baseline 94.7%
Procedure: as §2, §3, §4, §5

[7] = test system: LINE-1 DNA methylation in T24 cells (bladder); assay: Global DNA methylation, bisulfite-PCR pyrosequencing of LINE-1, T24 cells; format: cell-based; conditions: for LINE-1 methylation level after treatment: baseline 47.3%; for decrease in global DNA methylation (LINE-1): three days
Procedure: as §2
(§6) Cells were seeded at 2×10^4 cells per well in a 12-well dish 24 hours prior to treatments. Cells were treated with 5-Aza-CdR (Sigma-Aldrich Chemical Company, St. Louis, Mo.), NPEOC-DAC at the indicated concentrations. 5-aza-2′-deoxyazacytidine was dissolved in distilled water and NPEOC-DAC was dissolved in dimethyl sulfoxide (DMSO). Untreated controls of the DMSO solvent alone were also included. Cells were treated at the concentrations indicated for each experiment. Cells were collected after the number of days indicated in individual experiments. For subsequent methylation, genomic DNA was extracted using standard phenol/chloroform extraction methods, as described previously (27). Each experiment was done in triplicate and standard deviations are indicated by error bars.
(§7) Bisulfite modification of genomic DNA has been described previously (28). In brief, 1.5 μg of DNA was denatured in 50 μl of 0.2 M NaOH for 10 min at 37° C. Then, 30 μl of freshly prepared 10 mM hydroquinone (Sigma) and 520 μl of 3 M sodium bisulfite (Sigma) at pH 5.0 were added and mixed. The samples were overlaid with mineral oil to prevent evaporation and incubated at 50° C. for 16 h. The bisulfite-treated DNA was isolated using Wizard DNA Clean-Up System (Promega). The DNA was eluted by 50 microliters of warm water and 5.5 microliters of 3 M NaOH were added for 5 min. The DNA was ethanol precipitated with glycogen as a carrier and resuspended in 20 microliters of water. Bisulfite treated DNA was stored at −20° C. until ready for use.
as §1

[8] = test system: ID4 expression in HepG2 cells; assay: ID4 mRNA expression by RT-PCR in HepG2 cells; format: cell-based; conditions: 3 days of treatment, untreated cells no detectable ID4
Procedure: Genomic DNA was isolated by standard proteinase K digestion and phenol-chloroform extraction (26). Total RNA was collected and extracted from cultured cells with the RNeasy Protect minikit (Qiagen, Valencia, Calif.) according to the manufacturer's protocol.
as §6
Total RNA (5 micrograms) extracted from cultured cells was reverse transcribed with Moloney murine leukemia virus reverse transcriptase (Invitrogen, Carlsbad, Calif.) and random hexamers (NEB) in a total volume of 20 microliters. The reverse transcription was performed according to the manufacturer's recommended protocol. […]

[9] = test system: epigenetically silenced GFP reporter gene in NIH3T3 cells; assay: Epigenetic GFP reporter system, NIH3T3 cells with transient CES1 or CES2 transfection; format: cell-based; conditions: NIH3T3 GFP reporter clone
Source text: It was discovered that NPEOC-DAC could inhibit DNA methylation in cells expressing CES1 but not cells expressing CES2, and that inhibition of CES by NDGA blocked the ability of NPEOC-DAC to inhibit DNA methylation. […] Transfection of CES2 had no effect on NPEOC-DAC treatment and activation of GFP. NPEOC-DAC activation is dependent on CES1 expression.

[10] = test system: LINE-1 DNA methylation in HepG2 cells (liver); assay: Global DNA methylation, bisulfite-PCR pyrosequencing of LINE-1, HepG2 cells; format: cell-based; conditions: for LINE-1 methylation level after treatment / LINE-1 methylation level, time course / decrease in global DNA methylation (LINE-1): HepG2; for LINE-1 methylation level after treatment: 3 days, untreated baseline 53.9%; for LINE-1 methylation level, time course: 10 μM continual treatment, baseline 53.9%; for decrease in global DNA methylation (LINE-1): three days
Procedure: as §2, §6, §7, §1

[11] = test system: ID4 DNA methylation in Hep3B cells; assay: ID4 gene methylation, bisulfite-PCR pyrosequencing, Hep3B cells; format: cell-based; conditions: 10 μM, 3 days, baseline 95.4%
Procedure: as §2, §3, §4, §5

[12] = test system: HepG2 cells; assay: Cell toxicity during drug treatment of HepG2 cells; format: cell-based; conditions: for toxicity: 10 uM continual treatment, time course
Procedure: as §6

[13] = Solubility in water; format: physicochemical; conditions: consequently dissolved in DMSO
[14] = rapid deamination by plasma cytidine deaminase; cited from earlier work

Compound	decrease in DNA methylation of ID4 [2] [%]	decrease in global DNA methylation (LINE-1) [3] [%]	decrease in DNA methylation of ID4 [4] [%]	decrease in global DNA methylation (LINE-1) [5] [%]	decrease in DNA methylation of ID4 [6] [%]	decrease in global DNA methylation (LINE-1) ([7]; 10 μM) [%]	ID4 mRNA expression (RT-PCR) [8]	reactivation of GFP ([9]; no CES transfection)	LINE-1 methylation level after treatment ([10]; 0.5 μM)	LINE-1 methylation level, time course ([10]; day 1)	LINE-1 methylation level, time course ([10]; day 7)	decrease in global DNA methylation (LINE-1) ([10]; 10 μM) [%]	decrease in DNA methylation of ID4 [11] [%]	toxicity [12]	further results
CC(Cc1ccc(O)c(O)c1)C(C)Cc1ccc(O)c(O)c1 (centres unmarked) [NDGA, nordihydroguaiaretic acid, reference compound]															effect on DNA methylation of HepG2 cells ([1]; 100 μM, alone): no effect
Nc1ncn([C@H]2C[C@H](O)[C@@H](CO)O2)c(=O)n1 [DAC, 5-aza-2′-deoxycytidine, reference compound]	19.7	11.0	38.1	12.3	2.6	57.1	clear expression of ID4 could be detected	could be reactivated	46.0%	36.5%	returned to baseline	5.6	1.1	significant toxicity	LINE-1 methylation level after treatment ([7]; 0.5 uM, 3 days): 26.8%; LINE-1 methylation level after treatment ([7]; 1 uM, 3 days): 21.0%; LINE-1 methylation level after treatment ([7]; 5 uM, 3 days): 35.7%; LINE-1 methylation level after treatment ([10]; 1 μM): 47.0%; LINE-1 methylation level after treatment ([10]; 5 μM): 56.9%; cell toxicity ([12]; higher concentrations (5 μM), 3 days): significant cell toxicity
O=C(Nc1ncn([C@H]2C[C@H](O)[C@@H](CO)O2)c(=O)n1)OCCc1ccc([N+](=O)[O-])cc1 [NPEOC-DAC, 2′-deoxy-N4-[2-(4-nitrophenyl)ethoxycarbonyl]-5-azacytidine]	10.0	5.1	8.2	17.4	24.7	0.9	increased expression of ID4	without reactivation of GFP	no detectable effect	did not begin to decrease LINE-1 methylation until day 3	38.9%	22.1	26.2	less toxicity than observed with DAC	decrease in DNA methylation (LINE-1), time course ([7]; 10 μM, prolonged treatment (to day 14)): did not show any decrease; change in DNA methylation (LINE-1) ([7]; 3 days, up to the highest concentrations): no change in DNA methylation; reactivation of GFP ([9]; transfection of CES2): no effect; reactivation of GFP ([9]; transient transfection of human CES1 gene): reactivation of GFP; solubility in water [13]: very low solubility in water; delay in the effects compared to DAC [10]: 3 days; fold less efficient at inhibiting DNA methylation compared to DAC [10]: 23 fold; LINE-1 methylation level, time course ([10]; day 3): 43.7%; LINE-1 methylation level, time course ([10]; day 14): 30.9%; LINE-1 methylation level after treatment ([10]; 10 μM, concentration series): 42.0%; LINE-1 methylation level after treatment ([10]; 100 μM): 28.7%; LINE-1 methylation decreased by ([1]; 10 μM NPEOC-DAC alone): 49.7%; LINE-1 methylation level after treatment ([1]; 10 μM NPEOC-DAC alone): 24.5%; LINE-1 methylation change in combination with NDGA ([1]; in combination with NDGA (100 μM)): did not decrease
Nc1ncn([C@@H]2O[C@H](CO)[C@@H](O)[C@H]2O)c(=O)n1 [5-azacytidine]															in vivo plasma half-life [14]: 41 min
